Measured values taken from US12521440B2, “Degradation of bruton's tyrosine kinase (BTK) by conjugation of BTK inhibitors with E3 ligase ligand and methods of use” (BeOne Medicines I GmbH, priority 2021, dated 2026).
pIC50: −log10 of the molar value.

Experiments:
BTK = biological target: T1, BTK (Homo sapiens, UniProt Q06187); experiment: BTK degradation in TMD-8 cells (HTRF assay); assay type: cell-based; settings: 6 h treatment, HTRF BTK degradation IC50 (DC50)
T1 construct: endogenous in cells; host or cells: TMD-8 cells
In short: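 TMD-8 cells exposed to 8 concentrations (6-fold serial dilution from 1 mM 500× DMSO stocks; 0.2% DMSO final) for 6 h. Lysates incubated overnight at room temperature with HTRF antibodies, read at 665/620 nm. DC50 from four-parameter logistic fit of percent inhibition.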

HEK-293 cells = experiment: HEK-293 cytotoxicity detection (CellTiter-Glo); assay type: cell-based; settings: Homo sapiens, 72 h incubation, read-out: HEK293
In short: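 HEK-293 cells exposed 72 h to 8 compound concentrations (4-fold dilution series, 0.2% DMSO). Viability read as CellTiter-Glo luminescence; IC50 from four-parameter logistic fit of percent inhibition.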

T1 sequence (Q06187 whole entry): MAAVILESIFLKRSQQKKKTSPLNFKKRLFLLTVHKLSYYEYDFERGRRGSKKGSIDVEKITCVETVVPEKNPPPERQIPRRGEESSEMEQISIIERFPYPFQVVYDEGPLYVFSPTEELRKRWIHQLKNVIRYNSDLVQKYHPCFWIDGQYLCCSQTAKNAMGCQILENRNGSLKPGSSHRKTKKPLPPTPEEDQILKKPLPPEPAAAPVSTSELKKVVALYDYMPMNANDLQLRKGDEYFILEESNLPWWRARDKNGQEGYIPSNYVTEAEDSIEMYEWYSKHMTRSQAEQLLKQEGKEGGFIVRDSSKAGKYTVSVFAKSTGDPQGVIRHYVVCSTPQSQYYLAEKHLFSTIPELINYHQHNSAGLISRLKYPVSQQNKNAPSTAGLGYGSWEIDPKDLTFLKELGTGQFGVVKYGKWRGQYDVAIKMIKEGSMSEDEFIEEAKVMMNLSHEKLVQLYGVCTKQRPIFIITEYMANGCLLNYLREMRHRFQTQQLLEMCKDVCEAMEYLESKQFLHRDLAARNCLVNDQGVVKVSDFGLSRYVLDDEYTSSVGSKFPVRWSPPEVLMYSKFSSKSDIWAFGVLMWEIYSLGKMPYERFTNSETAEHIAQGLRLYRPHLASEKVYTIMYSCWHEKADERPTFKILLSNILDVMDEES

In the case of Cc1cc(-c2cc(Nc3ncc(N4CCN(CC5CCN(c6ccc(N7CCC(=O)NC7=O)cc6)CC5)CC4)s3)ncn2)c(F)cc1[C@@H](C)NC(=O)c1nc(C(C)(C)C)no1 [Example 71, (R)-3-(tert-butyl)-N-(1-(4-(6-((5-(4-((1-(4-(2,4-dioxotetrahydropyrimidin-1(2H)-yl)phenyl)piperidin-4-yl)methyl)piperazin-1-yl)thiazol-2-yl)amino)pyrimidin-4-yl)-5-fluoro-2-methylphenyl)ethyl)-1,2,4-oxadiazole-5-carboxamide], the DC50 (BTK) was 17.9 nM and the pIC50 (HEK-293 cells) was under 5.00.
Cc1cc(-c2cc(Nc3nnc(N4CCN(CC5CCN(c6ccc(N7CCC(=O)NC7=O)cc6)CC5)CC4)s3)ncn2)ccc1[C@@H](C)NC(=O)c1nc(C(C)(C)C)no1 [Example 72, (R)-3-(tert-butyl)-N-(1-(4-(6-((5-(4-((1-(4-(2,4-dioxotetrahydropyrimidin-1(2H)-yl)phenyl)piperidin-4-yl)methyl)piperazin-1-yl)-1,3,4-thiadiazol-2-yl)amino)pyrimidin-4-yl)-2-methylphenyl)ethyl)-1,2,4-oxadiazole-5-carboxamide] showed a DC50 (BTK) of 11.2 nM and a pIC50 (HEK-293 cells) of 5.72.
